Assay results taken from EP4684787A1, “PHARMACEUTICAL COMPOSITION CONTAINING DIPEPTIDYL PEPTIDASE SMALL MOLECULE INHIBITOR” (Haisco Pharmaceuticals Pte. Ltd., priority 2023, dated 2024).

Columns and labels:
[1] = Pharmacokinetic Experiment in Rats; assay type: in vivo, SD rats; conditions: Intravenous (1 mg/kg), rat plasma
Method: 1.1 Test animals: Male SD rats, ca. 220 g, 6-8 weeks old, 6 rats/compound. The rats were purchased from […] EXPERIMENTAL ANIMALS CO., LTD. 1.2 Test design: On the day of the test, 6 SD rats were randomly divided into groups according to body weight. The rats were fasted but had access to water for 12-14 hours one day before administration. The rats were fed 4 hours after administration. Table 9. Information for administration Vehicle for intravenous administration: 5% DMA + 5% Solutol + 90% Saline; Vehicle for oral gavage: 0.5% MC; control compound […] is namely Compound 2 in patent WO2015110826A1, and was prepared according to the method described in the patent. Rats were anesthetized with isoflurane before and after administration. Blood (0.1 ml) was collected by orbital blood collection and placed in EDTAK2 centrifuge tube. The blood sample was centrifuged at 5000 rpm at 4°C for 10 min. The plasma was collected. […] All samples were stored at -80° C till analysis and detection. Table 10. Pharmacokinetic parameters of test compounds in rat plasma

NE enzyme = conditions: background statement, no data; cited from earlier work
[2] = tested on: LPS-induced acute lung injury; conditions: background statement, no data; cited from earlier work

CL [1] [mL/min/kg] | Vdss [1] [L/kg] | Compound | NE enzyme activity in rat bone marrow (NE enzyme) | LPS-induced acute lung injury in mice [2]
1.66 | 0.753 | Cn1c(=O)oc2ccc(-c3ccc(C[C@@H](C#N)NC(=O)[C@@H]4CNCCCO4)c(F)c3)cc21 [Compound A, (S)-N-((S)-1-cyano-2-(2-fluoro-4-(3-methyl-2-oxo-2,3-dihydrobenzo[d]oxazol-5-yl)phenyl)ethyl)-1,4-oxazepane-2-carboxamide] | significantly inhibit | mitigate
2.08 | 0.738 | Cn1c(=O)oc2ccc(-c3ccc(C[C@@H](C#N)NC(=O)[C@@H]4CNCCCO4)cc3)cc21 [INS 1007, reference compound] |  | 
